We go through three compounds from US11806354B2 (priority 2017, dated 2023).

SMILES strings stand for the structures. Where two headings read alike, the source gives them in different places.

A short description of data set [1]: Dissolution testing of monolayer meloxicam/rizatriptan tablet in acidic medium (Example 4). The data set is classed as physicochemical. As to conditions: 0.01 N HCl. The text has this: The inclusion complex was the same as the inclusion complex of Example 3.
Another data set deals with migraine patients. The data set can be described thus: Phase 3 placebo- and active-controlled trial, acute treatment of moderate and severe migraine (Example 11). The class given is in vivo, human.
The conditions of data set [2]: human beings, 15 mg intramuscular dose; cited from earlier work.
How the values of data set [3] were obtained:
The effect of varying amounts of potassium carbonate (K2CO3) and sodium bicarbonate (NaHCO3) on the pH of acidic media was tested. The acidic media was chosen to simulate gastric conditions. K2CO3 or NaHCO3 was added to 50 mL of a 0.01 N HCl solution (pH 2). The pH of the solution was measured after addition of the K2CO3 or NaHCO3. Deionized water (240 mL) was then added to the mixture and pH was measured again.

Where [4] appears, read: monolayer tablet of Example 4, 0 min, 75 RPM, 37° C.
[5] abbreviates: monolayer tablet of Example 4, 15 min.
Where [6] appears, read: monolayer tablet of Example 4, 30 min.
[7] abbreviates: monolayer tablet of Example 4, 45 min.
Setting [8] is: monolayer tablet of Example 4, 60 min.
Where [9] appears, read: monolayer tablet of Example 4, 90 min.
Setting [10] is: monolayer tablet of Example 4, 120 min.

From the text for migraine patients: Exclusion criteria included cluster headaches or other types of migraines, chronic daily headache (≥15 non-migraine headache days per month), history of significant cardiovascular disease, and uncontrolled hypertension.

In the case of `CN(C)CCc1c[nH]c2ccc(Cn3cncn3)cc12` [Rizatriptan], the percent dissolved in data set [1] (setting [4]) is recorded as 0%. The same compound returned a percent dissolved in data set [1] (setting [5]) of 89%. In data set [1] (setting [6]), the percent dissolved came to 102%. The percent dissolved in data set [1] (setting [7]) is listed as 103%. The compound also registered a percent dissolved in data set [1] (setting [8]) of 103%. Further, the percent dissolved in data set [1] (setting [9]) was 103%. Besides, the percent dissolved in data set [1] (setting [10]) is listed as 103%. In addition, the “patients experiencing relapse of pain” value with migraine patients (48-hour period after dosing) is on record as 45.2%. Also, the “percentage of patients with sustained pain freedom” value with migraine patients (2 hours to 48 hours) was found to be 8.8%. Moreover, the “probability of experiencing pain relief” value in the data set on migraine patients (24 hours after taking) is listed as “approximately 60%”. In the data set on migraine patients (in vivo), the “Any Treatment-Emergent Adverse Event, number of subjects” value came out at 67; the “Dizziness, % of subjects” value was 2.1%; the “Dizziness, number of subjects” value is recorded as 9; the “Nausea, % of subjects” value was 4.8%. Moreover, in the data set on migraine patients (in vivo), the “Nausea, number of subjects” value was 21; the “Somnolence, % of subjects” value was determined as 2.1%; the “Somnolence, number of subjects” value came to 9; the “median time to pain relief” value was found to be 4 h.
`Cc1cnc(NC(=O)C2=C(O)c3ccccc3S(=O)(=O)N2C)s1` [Meloxicam]: the percent dissolved in data set [1] (setting [4]) is listed as 0%; in data set [1] (setting [5]), 79%; in data set [1] (setting [6]), 92%; in data set [1] (setting [7]), 93%; in data set [1] (setting [8]), 93%; in data set [1] (setting [9]), 93%. In data set [1] (setting [10]), this compound registered a percent dissolved of 94%. The AUC0-24 of meloxicam result in data set [2] was “about 27 μg·hr/mL”.
As to `O=C([O-])O.[Na+]` [NaHCO3, sodium bicarbonate], the pH in data set [3] (300 mg added to 50 mL 0.01 N HCl) came to 5.90; in data set [3] (750 mg added to 50 mL 0.01 N HCl), 8.30; in data set [3] (1000 mg, 0.01 N HCl + 240 mL water), 8.60.
